Results taken from publication PMC3674995, “Safety, Pharmacokinetic, and Efficacy Studies of Oral DB868 in a First Stage Vervet Monkey Model of Human African Trypanosomiasis” (PLoS Neglected Tropical Diseases, 2013).
“And” between values parts separate entries of the source, which are not always exact repeats. Equal values may be shown once. Read-outs that look alike come from different tables or passages of the source.

Experiments:
[1] = design: method as in earlier work; settings: cited from earlier work
[2] = test system: T. b. rhodesiense KETRI 2537; design: method as in PMID 19064893; settings: oral, for 5 days; first stage HAT monkey model; cited from earlier work
[3] = oral administration, cited from earlier work
[4] = design: method as in PMID 20721830; settings: cited from earlier work
[5] = Pharmacokinetics in uninfected vervet monkeys; settings: for half-life: po, geometric mean terminal elimination half-life
[6] = Metabolism of DB868 in vervet monkey liver microsomes; assay type: in vitro ADME; settings: incubation of 10 µM DB868; HPLC/UV; formation confirmed by fluorescence and mass spectrometric detection
Procedure: DB868 metabolism was studied in male vervet monkey liver microsomes (custom-prepared by XenoTech, LLC, Lenexa, KS, USA) by adapting a previously published method. Briefly, incubation mixtures contained 10 µM DB868, 0.5 mg/mL monkey liver microsomes, and 3.3 mM MgCl2 in 100 mM phosphate buffer (pH 7.4). Reactions were initiated by the addition of NADPH (1 mM final concentration). Control incubations were carried out without NADPH, DB868, or liver microsomes. Aliquots (100 µL) of the reaction mixtures were removed at 0, 5, 10, 15, 30, 60 and 120 min and mixed with 100 µL of ice-cold acetonitrile. After centrifugation to pellet precipitated proteins, the supernatants were analyzed by HPLC/UV and fluorescence using the method previously described for pafuramidine (DB289) and furamidine (DB75). Metabolite identification was performed by comparing retention times to those of synthetic standards for M1 (DB1679), M2 (DB840), M3 (DB1712), and DB829. DB868 and its metabolites were quantified using a calibration curve (0.1–10 µM) generated using synthetic standards.

[7] = test system: T. b. brucei s427 trypanosomes; design: method as in PMID 21402852; settings: 2.7 µM; cited from earlier work
[8] = test system: T. b. rhodesiense STIB900; design: method as in PMID 19620327; settings: in vitro; cited from earlier work
[9] = test system: T. b. rhodesiense STIB900; design: method as in PMID 19620327; settings: intraperitoneal administration; cited from earlier work
[10] = Pharmacokinetics in infected vervet monkeys (first stage HAT); assay type: in vivo, vervet monkey; settings: for AUClast: last measurable concentration varied (2–133 days)
[11] = test system: T. b. brucei GVR35; design: method as in PMID 19620327; settings: intraperitoneal administration; cited from earlier work
[12] = after final oral dose of DB868 10 mg/kg×10 days, uninfected, individual monkeys
[13] = after final oral dose of DB868 30 mg/kg×10 days, uninfected, individual monkeys
[14] = oral DB868 10 mg/kg group, infected
[15] = oral DB868 20 mg/kg group, infected
[16] = oral DB868 20 mg/kg×5 days, infected, individual monkeys

In the case of `CONC(=N)c1ccc(-c2ccc(-c3ccc(C(=N)NOC)cc3)o2)cc1` [pafuramidine, 2,5-bis(4-amidinophenyl)furan-bis-O-methylamidoxime], the “increase in KIM-1” value ([1]; oral 12 mg/kg/day×28 days, one week post-LDD) is given as 13 fold, the “increase in ALT compared to untreated rats” value ([1]; rats, 12 mg/kg/day for 4 weeks) is given as 18 fold and the “dose required to achieve complete cure” value [2] is given as 10 mg/kg. For the same compound, the “classical kidney injury biomarkers, BUN and serum creatinine” value ([3]; mouse diversity panel) was “remained unchanged”, the “urinary kidney injury molecule-1 (KIM-1)” value ([3]; sensitive strains of 34 inbred mouse strains) was “marked elevations” and the liver injury ([4]; extended phase I clinical trial in humans) was “transient liver injury”. For the same compound, the “patients with unexpected severe kidney injury” value ([4]; five patients) was about 6%.

In the case of `N=C(N)c1ccc(-c2ccc(-c3ccc(C(=N)N)cn3)o2)nc1` [DB829, 2,5-bis(5-amidino-2-pyridyl)furan], the “AUC0-∞” value [5, 12] is reported as 3700 nmol/L•day (2×) and 4100 nmol/L•day and 2400 nmol/L•day, the AUClast [5, 12] is reported as 3000 nmol/L•day and 2800 nmol/L•day and 2100 nmol/L•day (2×) and the “t1/2 (terminal elimination half-life)” value [5, 12] is reported as 30 day (2×) and 55 day and 18 day. For the same compound, the “AUC0-∞” value [5, 13] was 5600 nmol·days/L and 7000 nmol·days/L and 6200 nmol·days/L and 12100 nmol·days/L, the AUClast [5, 13] was 4700 nmol·days/L and 5700 nmol·days/L and 4600 nmol·days/L and 7100 nmol·days/L and the concentration at 4 h ([5]; both, monkey, in vivo, 10 mg/kg, C4 h, plasma concentration at 4 h after final (10th) oral dose of DB868 10 mg/kg×10 days, uninfected, individual monkeys 643, 659, 675, 677) was 240 nM. It also gave a concentration at 4 h ([5]; both, monkey, in vivo, 10 mg/kg/day, geometric mean C4 h, oral DB868 10 mg/kg/day×10 days, uninfected, n = 4) of 185 nM, a concentration at 4 h ([5]; both, monkey, in vivo, 30 mg/kg, C4 h, plasma concentration at 4 h after final (10th) oral dose of DB868 30 mg/kg×10 days, uninfected, individual monkeys 546, 567, 668, 679) of 440 nM and a concentration at 24 h ([5]; both, monkey, in vivo, 30 mg/kg, C24 h, plasma, 24 h after final oral dose of DB868 30 mg/kg×10 days, uninfected, individual monkeys) of 360 nM. For the same compound, the concentration at 4 h ([5]; both, monkey, in vivo, 30 mg/kg/day, geometric mean C4 h, oral DB868 30 mg/kg/day×10 days, uninfected, n = 4) was 320 nM, the half-life ([5]; both, monkey, in vivo, 10 mg/kg/day, oral DB868 10 mg/kg/day×10 days, uninfected (second of 'respectively'; agrees with Table 1)) was 744 h and the half-life ([5]; both, monkey, in vivo, 30 mg/kg/day, oral DB868 30 mg/kg/day×10 days, uninfected (first of 'respectively'; agrees with Table 1)) was 696 h. For the same compound, the “geometric mean C4 h relative to IC50 (14 nmol/L) against T. b. rhodesiense STIB900” value ([5]; oral DB868 10 mg/kg/day×10 days, uninfected) was 13 fold, the “geometric mean C4 h relative to IC50 (14 nmol/L) against T. b. rhodesiense STIB900” value ([5]; oral DB868 30 mg/kg/day×10 days, uninfected) was 23 fold and the “time plasma concentrations remained >100 nmol/L after last DB868 dose” value ([5]; oral DB868, in some monkeys (Figures 6 and 8, uninfected and infected)) was “up to 7 days post-LDD”. For the same compound, the “geometric mean AUC0-∞, 30 mg/kg group relative to 10 mg/kg group” value ([5]; oral DB868×10 days, uninfected) was 2.2 fold, the “geometric mean AUClast, 30 mg/kg group relative to 10 mg/kg group” value ([5]; oral DB868×10 days, uninfected) was 2.2 fold and the C4 h ([5]; plasma concentration at 4 h after final (10th) oral dose of DB868 10 mg/kg×10 days, uninfected, individual monkeys 643, 659, 675, 677) was 160 nM and 180 nM and 170 nM. The C4 h ([5]; plasma concentration at 4 h after final (10th) oral dose of DB868 30 mg/kg×10 days, uninfected, individual monkeys 546, 567, 668, 679) was 290 nM and 300 nM and 270 nM, the C24 h ([5]; plasma, 24 h after final oral dose of DB868 10 mg/kg×10 days, uninfected, individual monkeys, BLQ = below limit of quantitation) was 140 nM and 260 nM and 120 nM and 170 nM and the C24 h ([5]; plasma, 24 h after final oral dose of DB868 30 mg/kg×10 days, uninfected, individual monkeys) was 210 nM and 280 nM and 340 nM. The “detection of active compound formed from DB868” value [6] was “at the limit of detection in UV mode”, the “exposure required to kill trypanosomes in culture” value [7] was 24 h and the IC50 [8] was 14 nM. The curative [9] was 100%, the Cmax ([10]; after final oral dose of DB868 3 mg/kg×7 days, first stage HAT, individual monkeys 638, 643, read-out: Cmax) was 230 nM and the Cmax ([10]; after final oral dose of DB868 10 mg/kg×7 days, first stage HAT, individual monkeys 675, 691, read-out: Cmax) was 200 nM. The Tmax ([10]; after final oral dose of DB868 20 mg/kg×5 days, infected, individual monkeys) was 4.08 h, the Tmax ([10]; monkey, plasma, po, 3 mg/kg, oral DB868 3 mg/kg group, infected, read-out: median Tmax (converted)) was 4 h and the Cmax ([10]; monkey, plasma, po, 3 mg/kg/day, oral DB868 3 mg/kg/day×7 days, infected, read-out: median Cmax) was 170 nM. It also gave a Tmax ([10]; monkey, plasma, po, 10 mg/kg, oral DB868 10 mg/kg group, infected, read-out: median Tmax (converted)) of 24 h, a Cmax ([10]; monkey, plasma, po, 10 mg/kg/day, after final oral dose of DB868 10 mg/kg×7 days, first stage HAT, individual monkeys 675, 691, read-out: Cmax) of 210 nM and a Cmax ([10]; monkey, plasma, po, 10 mg/kg/day, oral DB868 10 mg/kg/day×7 days, infected, read-out: median Cmax) of 205 nM. It also gave a half-life ([10]; monkey, plasma, po, 10 mg/kg/day, oral DB868 10 mg/kg×7 days, infected, monkey 691, read-out: t1/2 (terminal elimination half-life) (converted)) of 600 h, a Tmax ([10]; monkey, plasma, po, 20 mg/kg, oral DB868 20 mg/kg group, infected, read-out: median Tmax (converted)) of 4 h and a Cmax ([10]; monkey, plasma, po, 20 mg/kg/day, after final oral dose of DB868 20 mg/kg×5 days, first stage HAT, individual monkeys 585, 658, read-out: Cmax) of 370 nM. For the same compound, the Tmax ([10]; monkey, plasma, po, 20 mg/kg/day, after final oral dose of DB868 20 mg/kg×5 days, infected, individual monkeys, read-out: Tmax (converted)) was 4.08 h, the Cmax ([10]; monkey, plasma, po, 20 mg/kg/day, oral DB868 20 mg/kg/day×5 days, infected, read-out: median Cmax) was 435 nM and the “median Cmax relative to IC50 (14 nmol/L) against T. b. rhodesiense STIB900” value (from here on “median Cmax relative to IC50 (14 nmol/L)”) ([10]; oral DB868 3 mg/kg/day for 7 days, infected) was 12 fold. The AUClast ([10]; oral DB868 3 mg/kg×7 days, infected, individual monkeys) was 160 nmol·days/L and 950 nmol·days/L, the “mean AUClast relative to 3 mg/kg group” value [10, 14] was 7 fold and the “median Cmax relative to 3 mg/kg group” value [10, 14] was 1.2 fold. The “median Cmax relative to IC50 (14 nmol/L)” value ([10]; oral DB868 10 mg/kg/day for 7 days, infected) was 15 fold, the AUClast ([10]; oral DB868 10 mg/kg×7 days, infected, individual monkeys) was 4000 nmol·days/L and 3500 nmol·days/L and the “AUC0-∞” value ([10]; oral DB868 10 mg/kg×7 days, infected, monkey 691) was 3900 nmol·days/L. For the same compound, the “mean AUClast relative to 3 mg/kg group” value [10, 15] was 10 fold, the “median Cmax relative to 3 mg/kg group” value [10, 15] was 2.6 fold and the “median Cmax relative to IC50 (14 nmol/L)” value ([10]; oral DB868 20 mg/kg/day for 5 days, infected) was 31 fold. The “AUC0-∞” value [10, 16] was 10000 nmol·days/L and 5300 nmol·days/L, the “t1/2 (terminal elimination half-life)” value [10, 16] was 85 days and 24 days and the AUClast [10, 16] was 7300 nmol·days/L and 4100 nmol·days/L. For the same compound, the “median AUC0-∞ of 20 mg/kg group relative to monkey 691 (10 mg/kg group)” value ([10]; oral DB868, infected) was “twice”, the “median terminal elimination half-life of 20 mg/kg group relative to monkey 691 (10 mg/kg group)” value ([10]; oral DB868, infected) was “twice” and the curative [11] was 100%.
